Results: the NIST ThermoML archive (doi:10.1016/j.jct.2012.07.018)

Test: molar heat capacity at constant pressure; xn = mol fraction of the nth substance listed
Settings: 313.15 K, Liquid, Flow calorimetry

C=CCCCC [hex-1-ene] + C1CCCCC1
molar heat capacity at constant pressure [J/K/mol]
Settings	x2 = 0	x2 = 0.1	x2 = 0.2	x2 = 0.2999	x2 = 0.4001	x2 = 0.5	x2 = 0.6001	x2 = 0.7	x2 = 0.8	x2 = 0.9
100 kPa	190.7	187.6	184.3	181.3	178	175.2	172.5	169.7	167.2	165.1
5000 kPa	186.6	181.3	180.5	176.8	174.2	171.6	169.6	167.3	163.8	162.2
10000 kPa	182.9	179.7	176.9	173.9	172.2	169.1	167	164.9	162.3	160
15000 kPa	180.4	177.2	174.8	171.7	169.9	167.6	165.4	163.3	160.2	158.1
20000 kPa	178.2	175.4	173.5	170.8	168.6	166.2	163.9	162.1	159.6	157.9

C=CCCCC [hex-1-ene] + CCO
molar heat capacity at constant pressure [J/K/mol]
Settings	x1 = 0.0999	x1 = 0.2	x1 = 0.3	x1 = 0.3998	x1 = 0.4998	x1 = 0.6	x1 = 0.7001	x1 = 0.8003	x1 = 0.9003	x1 = 1
100 kPa	130.7	142	152	161.5	171.8	–	186.4	192.3	197	190.7
5000 kPa	129	139.8	149.7	158.9	167.9	175.4	182.2	188.7	191.2	186.6
10000 kPa	127.3	138	147.2	156.2	165.1	172.6	179	184.7	188.5	182.9
15000 kPa	126	136.6	145.7	153.7	163.1	170.2	176.3	181.6	185.1	180.4
20000 kPa	125	135.4	144.3	152.9	161.4	168.4	174.7	178.5	183.4	178.2
